The values that follow are results of earlier work, collected in patent publication US20140170287A1, “METHODS FOR PREPARING AND COMPOSITIONS COMPRISING PLANT SEED-BASED OMEGA-3 FATTY ACIDS” (Living Healthy World LLC, priority 2012, published 2014).

The series deals with C-reactive protein (CRP). To be noted: consumption of ALA in flaxseeds; CRP as marker of the inflammatory status in the cardiovascular system.

As to `CC/C=C\C/C=C\C/C=C\CCCCCCCC(=O)O` [ALA, alpha-linolenic acid], the “decrease of blood levels of C-reactive protein (CRP)” value is 10-15%.
